Data: patent publication US8877770B2, “Polymorph of rifaximin and process for the preparation thereof” (Clarochem Ireland Limited, priority 2011, dated 2014)
Entries after “also recorded” stand apart in the source; their conditions may differ.

What was measured:
[1] = Stability testing following conditioning in a humid atmosphere (80% RH, 24 hours); type: physicochemical; settings: 80% relative humidity
Experimental: Stability testing of the polymorph of Rifaximin following conditioning in a humid atmosphere.
Two samples of the polymorphic form κ of Rifaximin: 63/11A, which was obtained by means of the procedure of example 4, and 69/11B, which was obtained by means of the procedure of example 1, were maintained for 24 hours in an environment of relative humidity equal to 80%. At the end of the conditioning, an increase of approximately 3%, ascribable to the adsorption of water from the environment, was recorded.

[2] = Exposure at room temperature to variable relative humidity for 12 days and to RH 80% for 5 months; type: physicochemical
Text: The polymorph obtained with the procedure described in example 2 was exposed at room temperature to variable relative humidity for a time period of 12 days, and then for a period of 5 months. When the humidity was increased, there were increases in the mass as shown in Table 2 for 12 days and Table 3 for 5 months.

increase of mass of the sample (adsorption of water) [1]: about 3% | increase of mass of the sample (adsorption of water) ([1]; listed as 63/11A): approximately 3% | increase of mass of the sample (adsorption of water) ([1]; listed as 69/11B): approximately 3% | % water after exposure to 80% humidity (RH 80%) ([2]; 1 month): 4.38% | % water after exposure to 80% humidity (RH 80%) ([2]; 2 months): 4.45% | % water after exposure to 80% humidity (RH 80%) ([2]; 5 months): 4.55% | value at which the increase of mass becomes stable ([2]; 80% humidity, stable after 4 days, unchanged after 5 months): approximately 4.5% | % water after exposure to 80% humidity (RH 80%) ([2]; 4 days): 4.38% | % water after exposure to 80% humidity (RH 80%) ([2]; 7 days): 4.44% | % water after exposure to 80% humidity (RH 80%) ([2]; 14 days): 4.37% | % water following exposure to 80% and 45% humidity ([2]; RH 80% 4 days, total days 4): 4.66% | DRX pattern after conditioning ([2]; RH 80%, 5 months): correspond to that one shown in FIG. 1 | nature of the water adsorption process ([2]; cycling between RH 80% and RH 45%, 12 days): superficial and reversible | % water after exposure to 80% humidity (RH 80%) ([2]; initial): 1.85% | % water following exposure to 80% and 45% humidity ([2]; initial, total days 0): 1.85% | maximum adsorption ([2]; prolonged exposure to relative humidity of 80%): 4.5% | % water following exposure to 80% and 45% humidity ([2]; then RH 45% 1 day, total days 12): 3.43% | % water following exposure to 80% and 45% humidity ([2]; then RH 45% 3 days, total days 7): 3.40% | % water following exposure to 80% and 45% humidity ([2]; then RH 80% 4 days, total days 11): 4.52%
SMILES: CO[C@H]1/C=C/O[C@@]2(C)Oc3c(C)c(O)c4c(O)c(c5c(nc6cc(C)ccn65)c4c3C2=O)NC(=O)/C(C)=C\C=C\[C@H](C)[C@H](O)[C@@H](C)[C@@H](O)[C@@H](C)[C@H](OC(C)=O)[C@@H]1C [polymorph κ, (2S,16Z,18E,20S,21S,22R,23R,24R,25S,26S,27S,28E)-5,6,21,23,25-pentahydroxy-27-methoxy-2,4,11,16,20,22,24,26-octamethyl-2,7-(epoxypentadeca-[1,11,13]-trienimmino)-benzofuro-[4,5-e]-pirido-[1,2-α]-benzimidazol-1,15(2H)-dione,25-acetate]
XRPD pattern pre/post-conditioning [1]: substantially identical to one another; also recorded: without registering significant changes in the XRPD pattern
